For one series, the target named is HSV polymerase (Human herpesvirus 1, UniProt P04293). The experiment in a line: HSV polymerase assay (Table 1). It is filed as biochemical.
The target of the next series is T1, HCMV polymerase (Human cytomegalovirus, UniProt P08546).
T1 construct: made in house; host or cells: recombinant baculovirus-infected SF-9 cells
Nature of the series: HCMV polymerase scintillation proximity assay (SPA). It is filed as biochemical. Particulars: HCMV polymerase, SPA; read-out: Polymerase IC50 HCMV. On the procedure: The HCMV polymerase assay is performed using a scintillation proximity assay (SPA) as described in several references, such as N. D. Cook, et al., Pharmaceutical Manufacturing International, pages 49-53 (1992); K Takeuchi, Laboratory Practice, September issue (1992); U.S. Pat. No. 4,568,649 (1986); which are incorporated by reference herein. Reactions are performed in 96-well plates. The assay is conducted in 100 μl volume with 5.4 mM HEPES (pH 7.5), 11.7 mM KCl, 4.5 mM MgCl2, 0.36 mg/ml BSA, and 90 nM ^3H-dTTP. Assays are run with and without CHAPS, (3-[(3-Cholamidopropyl)-dimethylammonio]-1-propane-sulfonate) at a final concentration of 2 mM. HCMV polymerase is diluted in enzyme dilution buffer containing 50% glycerol, 250 mM NaCl, 10 mM HEPES (pH 7.5), 100 μg/ml BSA, and 0.01% sodium azide. The HCMV polymerase, which is expressed in, recombinant baculovirus-infected SF-9 cells and purified according to literature procedures, is added at 10% (or 10 μl) of the final reaction volume, i.e., 100 μl. Compounds are diluted in 50% DMSO and 10 μl are added to each well. Control wells contain an equivalent concentration of DMSO. Unless noted otherwise, reactions are initiated via the addition of 6 nM biotinylated poly(dA)-oligo(dT) template/primer to reaction mixtures containing the enzyme, substrate, and compounds of interest. Plates are incubated in a 25° C. or 37° C. H2O bath and terminated via the addition of 40 μl/reaction of 0.5 M EDTA (pH 8) per well. Reactions are terminated within the time-frame during which substrate incorporation is linear and varied depending upon the enzyme and conditions used, i.e., 30 min. for HCMV polymerase. Ten (10) 10 μL of streptavidin-SPA beads (20 mg/ml in PBS/10% glycerol) are added following termination of the reaction. Plates are incubated 10 min. at 37° C., then equilibrated to room temperature, and counted on a Packard Topcount. Linear regressions are performed and IC50's are calculated using computer software.
A modified version of the above HCMV polymerase assay is performed as described above, but with the following changes: Compounds are diluted in 100% DMSO until final dilution into assay buffer. In the previous assay, compounds are diluted in 50% DMSO. 4.5 mM Dithiothreitol (DTT) is added to the polymerase buffer.
All results are listed as Polymerase IC50 ([…]) values. In Table 1, the term “n.d.” refers to activity data not determined.
Background: SPA uses beads or plates that emit light when radiolabelled molecules are held near them.

For a further series, the target named is VZV polymerase (Varicella-zoster virus, UniProt P09252). Nature of the series: VZV polymerase assay (Table 1). It is filed as biochemical.
Sequence of VZV polymerase (P09252 whole entry): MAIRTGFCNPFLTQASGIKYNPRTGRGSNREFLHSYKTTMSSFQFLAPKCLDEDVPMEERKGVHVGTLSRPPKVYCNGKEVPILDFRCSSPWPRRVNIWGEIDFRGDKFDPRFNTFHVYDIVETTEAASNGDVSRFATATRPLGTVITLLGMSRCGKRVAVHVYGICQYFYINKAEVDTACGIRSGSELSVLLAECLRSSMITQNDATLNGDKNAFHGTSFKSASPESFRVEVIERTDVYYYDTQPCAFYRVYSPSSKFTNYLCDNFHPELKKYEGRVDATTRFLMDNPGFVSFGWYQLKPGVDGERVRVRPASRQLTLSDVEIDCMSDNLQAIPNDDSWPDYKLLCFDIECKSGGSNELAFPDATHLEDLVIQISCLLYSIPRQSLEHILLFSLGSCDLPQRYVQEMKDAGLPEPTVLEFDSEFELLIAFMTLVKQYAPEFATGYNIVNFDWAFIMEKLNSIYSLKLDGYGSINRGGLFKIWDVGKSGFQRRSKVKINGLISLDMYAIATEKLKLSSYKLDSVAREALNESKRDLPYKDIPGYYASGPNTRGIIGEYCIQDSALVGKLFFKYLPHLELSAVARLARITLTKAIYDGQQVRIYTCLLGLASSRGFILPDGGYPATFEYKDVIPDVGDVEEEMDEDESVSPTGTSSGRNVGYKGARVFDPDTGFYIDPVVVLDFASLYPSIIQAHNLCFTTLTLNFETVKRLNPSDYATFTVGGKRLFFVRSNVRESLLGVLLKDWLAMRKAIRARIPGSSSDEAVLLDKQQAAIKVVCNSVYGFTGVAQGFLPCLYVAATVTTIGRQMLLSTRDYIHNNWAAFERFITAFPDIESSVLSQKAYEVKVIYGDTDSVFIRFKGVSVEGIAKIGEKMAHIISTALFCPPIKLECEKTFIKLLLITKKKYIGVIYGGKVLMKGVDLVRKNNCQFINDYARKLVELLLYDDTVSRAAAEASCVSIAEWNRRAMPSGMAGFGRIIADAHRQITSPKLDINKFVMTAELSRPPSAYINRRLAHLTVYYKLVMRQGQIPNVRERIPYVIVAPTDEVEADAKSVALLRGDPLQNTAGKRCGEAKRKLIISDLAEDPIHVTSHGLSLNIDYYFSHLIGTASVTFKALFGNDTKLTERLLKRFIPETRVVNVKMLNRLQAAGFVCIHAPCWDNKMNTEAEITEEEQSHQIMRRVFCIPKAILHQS

The results in this text go back to patent US20040110787A1, “Heteroaryl-ethanolamine derivatives as antiviral agents” (priority 2002, published 2004).

T1 sequence (P08546 whole entry): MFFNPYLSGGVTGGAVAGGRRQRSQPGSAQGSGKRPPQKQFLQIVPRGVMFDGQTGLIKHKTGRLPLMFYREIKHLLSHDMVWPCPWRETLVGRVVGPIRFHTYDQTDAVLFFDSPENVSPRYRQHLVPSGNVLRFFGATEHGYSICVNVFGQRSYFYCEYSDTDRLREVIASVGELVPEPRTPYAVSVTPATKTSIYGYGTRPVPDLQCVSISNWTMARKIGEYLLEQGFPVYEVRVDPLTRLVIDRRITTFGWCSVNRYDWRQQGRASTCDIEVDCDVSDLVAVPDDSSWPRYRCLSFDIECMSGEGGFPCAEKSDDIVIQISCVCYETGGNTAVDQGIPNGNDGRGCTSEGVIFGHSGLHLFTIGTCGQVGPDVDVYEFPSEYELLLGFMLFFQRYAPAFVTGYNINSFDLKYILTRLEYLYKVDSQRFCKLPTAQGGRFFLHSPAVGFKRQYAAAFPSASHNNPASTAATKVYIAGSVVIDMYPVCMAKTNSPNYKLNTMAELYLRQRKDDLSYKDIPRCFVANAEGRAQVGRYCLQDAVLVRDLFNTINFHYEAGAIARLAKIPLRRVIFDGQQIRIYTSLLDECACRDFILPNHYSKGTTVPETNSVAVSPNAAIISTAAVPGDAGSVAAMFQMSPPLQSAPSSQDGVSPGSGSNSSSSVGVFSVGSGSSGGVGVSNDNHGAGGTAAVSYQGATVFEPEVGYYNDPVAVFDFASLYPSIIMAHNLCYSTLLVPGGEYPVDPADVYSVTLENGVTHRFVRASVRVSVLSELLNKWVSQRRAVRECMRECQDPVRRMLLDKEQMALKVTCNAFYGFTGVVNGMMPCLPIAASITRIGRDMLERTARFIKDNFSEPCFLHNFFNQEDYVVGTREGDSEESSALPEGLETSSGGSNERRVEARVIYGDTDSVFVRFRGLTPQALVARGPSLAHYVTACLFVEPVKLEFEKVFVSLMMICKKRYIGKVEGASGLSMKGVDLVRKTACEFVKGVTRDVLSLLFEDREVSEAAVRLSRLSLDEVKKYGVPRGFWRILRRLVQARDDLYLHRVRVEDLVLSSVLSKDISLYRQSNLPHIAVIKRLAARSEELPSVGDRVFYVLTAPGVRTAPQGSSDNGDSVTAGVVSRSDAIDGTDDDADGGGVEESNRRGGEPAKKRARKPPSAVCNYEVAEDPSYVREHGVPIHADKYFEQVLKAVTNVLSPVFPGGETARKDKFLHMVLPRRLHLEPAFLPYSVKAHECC
Sequence of HSV polymerase (P04293 whole entry): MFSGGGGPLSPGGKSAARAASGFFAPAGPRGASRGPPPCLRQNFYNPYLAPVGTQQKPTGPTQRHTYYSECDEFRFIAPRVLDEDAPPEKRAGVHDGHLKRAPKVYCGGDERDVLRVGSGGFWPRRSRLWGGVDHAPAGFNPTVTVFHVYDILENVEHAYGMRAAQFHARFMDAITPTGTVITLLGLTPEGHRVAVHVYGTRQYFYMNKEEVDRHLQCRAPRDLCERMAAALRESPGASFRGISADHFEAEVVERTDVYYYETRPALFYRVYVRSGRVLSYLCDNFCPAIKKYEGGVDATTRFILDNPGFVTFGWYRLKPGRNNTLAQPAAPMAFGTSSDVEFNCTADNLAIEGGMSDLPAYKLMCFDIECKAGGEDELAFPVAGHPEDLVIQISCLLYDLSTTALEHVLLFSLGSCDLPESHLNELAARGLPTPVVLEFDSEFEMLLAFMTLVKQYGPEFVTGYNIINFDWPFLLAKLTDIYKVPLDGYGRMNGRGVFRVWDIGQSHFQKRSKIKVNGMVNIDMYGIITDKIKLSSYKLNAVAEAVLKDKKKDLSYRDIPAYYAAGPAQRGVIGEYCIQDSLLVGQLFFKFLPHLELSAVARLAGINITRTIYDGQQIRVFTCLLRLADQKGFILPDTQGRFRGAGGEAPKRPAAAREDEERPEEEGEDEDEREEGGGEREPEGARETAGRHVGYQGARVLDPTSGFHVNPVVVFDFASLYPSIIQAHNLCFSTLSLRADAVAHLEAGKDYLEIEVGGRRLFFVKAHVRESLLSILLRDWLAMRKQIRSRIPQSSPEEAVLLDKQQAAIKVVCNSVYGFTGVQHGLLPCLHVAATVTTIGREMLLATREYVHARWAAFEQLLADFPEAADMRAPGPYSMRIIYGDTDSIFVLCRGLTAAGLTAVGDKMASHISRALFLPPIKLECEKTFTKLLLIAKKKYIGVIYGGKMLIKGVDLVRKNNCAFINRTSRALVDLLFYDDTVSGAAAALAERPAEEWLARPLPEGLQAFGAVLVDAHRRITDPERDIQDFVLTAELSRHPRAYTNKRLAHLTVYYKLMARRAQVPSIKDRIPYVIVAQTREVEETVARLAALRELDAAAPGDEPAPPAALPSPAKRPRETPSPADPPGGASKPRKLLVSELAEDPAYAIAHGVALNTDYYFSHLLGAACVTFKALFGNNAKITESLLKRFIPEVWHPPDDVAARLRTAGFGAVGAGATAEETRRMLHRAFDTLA

For `CN(Cc1cc2c(=O)c(C(=O)NCc3ccc(Cl)cc3)cn(C)c2s1)CC(O)c1ccc2ccccc2n1` (racemic) [Example 7, rac-N-(4-Chlorobenzyl)-2-(((2-hydroxy-2-quinolin-2-ylethyl)(methyl)amino)methyl)-7-methyl-4-oxo-4,7-dihydrothieno[2,3-b]pyridine-5-carboxamide], the melting point – broadly, the temperature of the solid-liquid transition – fell in the range of 155 to 160 °C. Moreover, the midpoint of inhibition against HSV polymerase, the IC50, lay at 150 nM. Also, on HCMV polymerase, the IC50 (as a rule, the concentration at which inhibition is half-maximal) worked out at 70 nM. Also, on VZV polymerase, the concentration for half-maximal inhibition (IC50) was determined as 40 nM.

On to `CN(Cc1cc2c(=O)c(C(=O)NCc3ccc(Cl)cc3)cn(C)c2s1)CC(O)c1ncccn1` (racemic) [Example 8, rac-N-(4-Chlorobenzyl)-2-(((2-hydroxy-2-pyrimidin-2-ylethyl)(methyl)amino)methyl)-7-methyl-4-oxo-4,7-dihydrothieno[2,3-b]pyridine-5-carboxamide], for which the melting point is 181 °C. At HSV polymerase, this molecule registered an IC50 of 150 nM. In addition, the IC50 on HCMV polymerase came out at 130 nM. In addition, the IC50 against VZV polymerase came out at 50 nM.

In turn, `CCn1cc(C(=O)NCc2ccc(Cl)cc2)c(=O)c2cc(CN(C)CC(O)c3cnccn3)sc21` (racemic) [Example 13, rac-N-(4-Chlorobenzyl)-7-ethyl-2-(((2-hydroxy-2-pyrazin-2-ylethyl)(methyl)amino)methyl)-4-oxo-4,7-dihydrothieno[2,3-b]pyridine-5-carboxamide] registered a melting point of 130 to 133 °C. In addition, the IC50 against HSV polymerase was determined as 550 nM. The IC50 on HCMV polymerase is 370 nM. At VZV polymerase, this molecule yielded an IC50 of 170 nM.

`CN(Cc1cc2c(=O)c(C(=O)NCc3ccc(Cl)cc3)cn(C)c2s1)CC(O)c1cccnc1` (single isomer, unassigned; (+)) [Example 2, (+)-N-(4-Chlorobenzyl)-2-(((2-hydroxy-2-pyridin-3-ylethyl)(methyl)amino)methyl)-7-methyl-4-oxo-4,7-dihydrothieno[2,3-b]pyridine-5-carboxamide] yielded a melting point of 132 to 135 °C. Also, the IC50 against HSV polymerase was found to be 350 nM. Moreover, on HCMV polymerase, the IC50 is 80 nM. The IC50 at VZV polymerase was 130 nM.

As for `CN(Cc1cc2c(=O)c(C(=O)NCc3ccc(Cl)cc3)cn(C)c2s1)C[C@@H](O)c1ccccn1` [Example 5, (+)-N-(4-Chlorobenzyl)-2-((((2R)-2-hydroxy-2-pyridin-2-ylethyl)(methyl)amino)methyl)-7-methyl-4-oxo-4,7-dihydrothieno[2,3-b]pyridine-5-carboxamide], the melting point was 139 to 144 °C. This molecule returned an IC50 at HSV polymerase of 60 nM. Further, the IC50 on HCMV polymerase came out at 60 nM. This molecule also returned an IC50 against VZV polymerase of 20 nM.
